# Experimental data taken from patent US20240408099A1, “COMBINATION […] OF KRAS G12D INHIBITORS WITH Pan ErbB FAMILY INHIBITORS” (MIRATI THERAPEUTICS, INC., priority 2021, published 2024).
# System: HPAC cells
# Assay: HPAC TGI 73 pancreatic cancer xenograft, tumor volumes
# Assay type: in vivo, nude/nude mice
# Settings: for Average Tumor Volumes: 50 mg/kg PO daily
# Protocol: Immunocompromised nude/nude mice are inoculated in the right hind flank with cells harboring a KRas G12D mutation. When tumor volumes reach between 200-400 mm^3 in size, the mice are divided into four to five groups of 5 mice each. The first group is administered vehicle only. […] The fourth or last groups are administered the single agent dose of the KRas G12D inhibitor using the twice daily schedule and/or the 2 sequential days followed by 5 days off schedule in combination with the single agent dose of one of the EGFR inhibitors. The treatment period varies from cell line to cell line but typically is between 15-40 days. Tumor volumes are measured using a caliper every two-three days and tumor volumes are calculated by the formula: […].
# Experimental Procedures. 20 nude/nude mice were inoculated with HPAC cells in the right hind flank. When the tumors reached ˜200 mm^3 four treatment groups were established with five mice per group.
smiles,measurement,setting,value
"C#Cc1cccc(Nc2ncnc3cc(OCCOC)c(OCCOC)cc23)c1 [Erlotinib, [6,7-Bis-(2-methoxy-ethoxy)-quinazolin-4-yl]-(3-ethynyl-phenyl)-amine, reference compound]",Average Tumor Volumes,Study Day 0,197.582 mm^3
same,Average Tumor Volumes,Study Day 3,320.132 mm^3
same,Average Tumor Volumes,Study Day 7,421.908 mm^3
same,Average Tumor Volumes,Study Day 10,587.79 mm^3
same,Average Tumor Volumes,Study Day 14,705.688 mm^3
same,Average Tumor Volumes,Study Day 17,856.214 mm^3
same,Average Tumor Volumes,Study Day 21,945.702 mm^3
same,tumor growth inhibition,"50 mg/kg daily, single agent, Day 21",35%
